In patent US20180086744A1, “COMBINATION TREATMENT OF CANCER COMPRISING EGFR/HER2 INHIBITORS” (Boehringer Ingelheim International GmbH, priority 2005, published 2018):

Assays:
SKOV-3 cells = assay: anchorage independent SKOV-3 cell assay (soft agar); assay type: cell-based, human
Method: SKOV-3 cells are grown on a soft agar layer in the presence of 2 nM BIBW2992BS or three concentrations of 5FU (200 nM, 400 nM, 800 nM) or in combination of both.

[1] = system: double mutant EGF receptors; details: cell lines expressing double mutant EGF receptors; cited from earlier work
[2] = system: cell lines expressing double mutant EGF receptors; details: cited from earlier work

CN(C)C/C=C/C(=O)Nc1cc2c(Nc3ccc(F)c(Cl)c3)ncnc2cc1O[C@H]1CCOC1 [BIBW2992, 4-[(3-chloro-4-fluorophenyl)amino]-6-{[4-(N,N-dimethylamino)-1-oxo-2-buten-1-yl]amino}-7-((S)-tetrahydrofuran-3-yloxy)-quinazoline]
inhibition at 0.002 µM (SKOV-3 cells; Homo sapiens, SK-OV-3, 2 nM, read-out: inhibition of cell growth): 20%

O=c1[nH]cc(F)c(=O)[nH]1 [5FU, 5-fluorouracile]
inhibition of cell growth (SKOV-3 cells; 200 nM): No inhibition
inhibition of cell growth (SKOV-3 cells; 400 nM): No inhibition
inhibition at 0.8 µM (SKOV-3 cells; Homo sapiens, SK-OV-3, 800 nM, read-out: inhibition of cell growth): 13%

CC#CC(=O)Nc1ccc2ncnc(Nc3cccc(Br)c3)c2c1 [CL 387,785]
inhibition of EGF-induced EGFR phosphorylation [1]: able to inhibit
inhibition of proliferation [2]: able to inhibit
